Test results: ChEMBL document CHEMBL1148535, “Hexylitaconic acid: a new inhibitor of p53-HDM2 interaction isolated from a marine-derived fungus, Arthrinium sp” (Bioorg Med Chem Lett, 2006)
Active and inactive are the calls of the source. No cut-off for these calls is given here.

Target: T1, E3 ubiquitin-protein ligase Mdm2 (Homo sapiens, UniProt Q00987)
Assay: Inhibition of p53-HDM2 interaction at 50 ug/ml
Target sequence in this assay (Q00987 whole entry, looked up): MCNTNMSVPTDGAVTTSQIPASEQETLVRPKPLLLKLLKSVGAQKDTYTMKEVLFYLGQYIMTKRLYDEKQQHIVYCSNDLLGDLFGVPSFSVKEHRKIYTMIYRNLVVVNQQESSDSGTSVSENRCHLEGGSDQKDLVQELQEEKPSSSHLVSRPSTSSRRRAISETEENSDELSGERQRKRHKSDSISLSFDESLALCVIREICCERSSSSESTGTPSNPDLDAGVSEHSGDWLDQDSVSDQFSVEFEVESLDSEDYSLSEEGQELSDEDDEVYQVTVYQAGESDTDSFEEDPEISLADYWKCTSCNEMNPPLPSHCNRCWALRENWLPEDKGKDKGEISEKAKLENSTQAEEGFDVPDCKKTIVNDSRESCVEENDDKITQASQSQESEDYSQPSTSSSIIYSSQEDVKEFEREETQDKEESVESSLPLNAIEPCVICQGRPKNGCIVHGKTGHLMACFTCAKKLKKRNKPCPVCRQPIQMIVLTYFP

Row | Structure (SMILES) | Activity
1 | CCCCCCC(C(=O)OC)C(C)C(=O)O (stereo unspecified) | inactive
2 | C=C(CC(=O)O)C(=O)O | inactive
3 | O=C(O)CCC(=O)O | inactive
4 | C=C(C(=O)O)C(CCCCCC)C(=O)OC (stereo unspecified) | inactive
5 | CCCCCCC(C(=O)O)C(C)C(=O)O (stereo unspecified) | inactive

Target: T1, E3 ubiquitin-protein ligase Mdm2
Assay: Inhibition of p53-HDM2 interaction
Target sequence in this assay (Q00987 whole entry): as the sequence (Q00987 whole entry, looked up) above

Row | Structure (SMILES) | IC50 [µM]
6 | C=C(C(=O)O)C(CCCCCC)C(=O)O (stereo unspecified) [HEXYLITACONIC ACID] | 233
